Data from patent publication US7297771B2 (priority 1992, dated 2007).

Tests used:
[1] = target: K56 receptor (mouse delta opioid receptor) (Mus musculus, UniProt P32300); experiment: biochemical
[2] = target: T1, delta opioid receptor of NG 108-15 cells (Mus musculus, UniProt P32300); experiment: biochemical; type: binding
T1 construct: NG 108-15 cells, which express the delta opioid receptor naturally; endogenous in cells; host or cells: NG 108-15 cells (membranes)
T1 sequence (P32300 whole entry): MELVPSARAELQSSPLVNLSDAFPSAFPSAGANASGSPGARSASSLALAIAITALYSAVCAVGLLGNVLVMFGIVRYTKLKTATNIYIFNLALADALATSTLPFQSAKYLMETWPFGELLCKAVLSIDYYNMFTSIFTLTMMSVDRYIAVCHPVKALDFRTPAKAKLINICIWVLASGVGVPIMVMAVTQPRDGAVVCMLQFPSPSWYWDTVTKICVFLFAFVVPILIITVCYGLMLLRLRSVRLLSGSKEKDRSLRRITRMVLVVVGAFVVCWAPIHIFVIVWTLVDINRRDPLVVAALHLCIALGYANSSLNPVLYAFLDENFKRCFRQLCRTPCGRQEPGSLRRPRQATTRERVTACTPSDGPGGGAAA

Sequence of K56 receptor (mouse delta opioid receptor) (P32300 whole entry): as above

`CCC12CCN(CC3(O)CC3)C(Cc3ccc(O)cc31)C2(C)C` (stereo not shown) [Bremazocine, bremazocine] showed a Ki ([1]; PKi Cos K56) of 5.62 nM, a Ki ([1]; inhibition constant Ki) of 5.7 nM and a Ki [2] of 1.78 nM.

Molecule `CN1CC[C@]23CCCC[C@H]2[C@H]1Cc1ccc(O)cc13` [Levorphanol, levorphanol] has a Ki ([1]; inhibition constant Ki) of 20.9 nM.
